pEC50, pIC50: −log10 of the molar value.
Assays:
[1] = target: T1, human Werner helicase (WRN, Uniprot Q14191, amino acids 517-1235 with L1074F point mutation; WRN-BV08) (Homo sapiens, UniProt Q14191, L1074F); test: WRN (BV08) ADP-Glo assay; type: biochemical; settings: WRN-BV08 (aa 517-1235, L1074F); read-out: ADP-Glo_hWRN_IC50
T1 construct: Uniprot Q14191, amino acids 517-1235 with L1074F point mutation; 8xHis (C, cleaved yes); TEV cleavage site (ENLYFQG) (C, cleaved yes); made in house; host or cells: Sf9 insect cells (baculovirus, pFastBac)
Outline: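 WRN 517-1235 (L1074F, untagged, Sf9-expressed), 0.15 nM, preincubated with compound 15 min at 25 °C, then 60 min with […] and 0.1 nM DNA duplex in Bicine pH 7.5, 1 mM MgCl2, 1% DMSO. ADP-Glo luminescence; % inhibition vs NSC-617145 control, four-parameter IC50 fit.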

[2] = tested on: p21 induction in HCT 116 cells; test: p21 induction in cells (In-Cell Western, p21/GAPDH ratio); type: cell-based; settings: Homo sapiens, HCT-116, 24 h, 24 h compound incubation, read-out: P21_EC50
Outline: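 HCT 116 cells treated 24 h at 37° C with 11-point, 2-fold dilutions starting typically at 10 μM, in duplicate. Fixed cells immunostained for p21 and GAPDH; 800/700 nm ratio normalised between DMSO and reference WRN inhibitor controls as percent activation. EC50 from non-linear regression.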

T1 sequence (Q14191 with tags, fused parts or gaps L1074F): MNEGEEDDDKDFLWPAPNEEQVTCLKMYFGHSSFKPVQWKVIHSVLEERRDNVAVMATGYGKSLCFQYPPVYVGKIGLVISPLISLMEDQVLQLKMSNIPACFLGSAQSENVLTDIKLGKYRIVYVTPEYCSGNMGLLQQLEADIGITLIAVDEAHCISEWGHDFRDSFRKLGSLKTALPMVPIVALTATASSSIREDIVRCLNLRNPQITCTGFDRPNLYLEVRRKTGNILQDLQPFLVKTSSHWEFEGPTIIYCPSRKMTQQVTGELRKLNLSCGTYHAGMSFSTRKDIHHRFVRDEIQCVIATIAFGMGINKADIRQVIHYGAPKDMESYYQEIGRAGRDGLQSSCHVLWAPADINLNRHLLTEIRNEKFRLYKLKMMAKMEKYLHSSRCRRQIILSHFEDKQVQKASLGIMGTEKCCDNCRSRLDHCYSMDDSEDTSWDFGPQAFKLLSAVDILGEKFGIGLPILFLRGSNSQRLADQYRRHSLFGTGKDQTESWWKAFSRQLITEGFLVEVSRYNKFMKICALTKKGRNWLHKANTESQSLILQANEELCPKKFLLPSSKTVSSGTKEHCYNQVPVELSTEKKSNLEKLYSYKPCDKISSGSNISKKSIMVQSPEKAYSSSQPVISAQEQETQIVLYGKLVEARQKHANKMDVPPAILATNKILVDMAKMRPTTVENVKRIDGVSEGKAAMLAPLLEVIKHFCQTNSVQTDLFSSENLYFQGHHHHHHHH

Compound | pIC50 [1] | pEC50 [2]
CCc1c(N2CCN(C(=O)c3c(O)ccc4ncoc34)CC2)c(=O)c2sc(-c3ccnc(OC)c3)nc2n1CC(=O)NC12CC(C(F)(F)F)(C1)C2 [I-37, 2-(5-ethyl-6-(4-(6-hydroxybenzo[d]oxazole-7-carbonyl)piperazin-1-yl)-2-(2-methoxypyridin-4-yl)-7-oxothiazolo[4,5-b]pyridin-4(7H)-yl)-N-(3-(trifluoromethyl)bicyclo[1.1.1]pentan-1-yl)acetamide] | 7.30 to 8.30 | 5.70 to 6.30
CCc1c(N2CCN(C(=O)c3c(O)ccc4ncoc34)CC2)c(=O)n2nc(-c3ccnc(OC)c3)nc2n1CC(=O)NC12CC(C(F)(F)C(F)(F)F)(C1)C2 [I-38, 2-(5-ethyl-6-(4-(6-hydroxybenzo[d]oxazole-7-carbonyl)piperazin-1-yl)-2-(2-methoxypyridin-4-yl)-7-oxo-[1,2,4]triazolo[1,5-a]pyrimidin-4(7H)-yl)-N-(3-(perfluoroethyl)bicyclo[1.1.1]pentan-1-yl)acetamide] | 7.30 to 8.30 | ≥ 6.30
CCc1c(N2CCN(C(=O)c3ncnc(C)c3O)CC2)c(=O)n2nc(-c3ccnc(OC)c3)nc2n1CC(=O)NC12CC(C(C)C)(C1)C2 [I-40, 2-(5-ethyl-6-(4-(5-hydroxy-6-methylpyrimidine-4-carbonyl)piperazin-1-yl)-2-(2-methoxypyridin-4-yl)-7-oxo-[1,2,4]triazolo[1,5-a]pyrimidin-4(7H)-yl)-N-(3-isopropylbicyclo[1.1.1]pentan-1-yl)acetamide] | 7.30 to 8.30 | ≥ 6.30
CCc1c(N2CCN(C(=O)c3c(O)ccc4ncoc34)CC2)c(=O)n2nc(C3=CCOCC3)nc2n1CC(=O)NC12CC(C(C)C)(C1)C2 [I-42, 2-(2-(3,6-dihydro-2H-pyran-4-yl)-5-ethyl-6-(4-(6-hydroxybenzo[d]oxazole-7-carbonyl)piperazin-1-yl)-7-oxo-[1,2,4]triazolo[1,5-a]pyrimidin-4(7H)-yl)-N-(3-isopropylbicyclo[1.1.1]pentan-1-yl)acetamide] | 7.30 to 8.30 | ≥ 6.30
CCc1c(N2CCN(C(=O)c3c(O)ccc4ncoc34)CC2)c(=O)n2nc(N(C)C)nc2n1CC(=O)NC12CC(C(C)C)(C1)C2 [I-43, 2-(2-(dimethylamino)-5-ethyl-6-(4-(6-hydroxybenzo[d]oxazole-7-carbonyl)piperazin-1-yl)-7-oxo-[1,2,4]triazolo[1,5-a]pyrimidin-4(7H)-yl)-N-(3-isopropylbicyclo[1.1.1]pentan-1-yl)acetamide] | 7.30 to 8.30 | 5.70 to 6.30
CCc1c(N2CCN(C(=O)c3c(O)cc(OC)cc3OC)CC2)c(=O)c2nn(-c3ccnc(OC)c3)nc2n1CC(=O)NC12CC(C3CC3)(C1)C2 [I-132, N-{3-cyclopropylbicyclo[1.1.1]pentan-1-yl}-2-{5-ethyl-6-[4-(2-hydroxy-4,6-dimethoxybenzoyl)piperazin-1-yl]-2-(2-methoxypyridin-4-yl)-7-oxo-2H,4H,7H-[1,2,3]triazolo[4,5-b]pyridin-4-yl}acetamide] | 7.30 to 8.30 | 5.30 to 5.70
CCc1c(N2CCN(C(=O)c3cccc(N4CCN(C)CC4)c3)[C@H]3CC[C@@H]32)c(=O)c2nn(C3=CCOCC3)nc2n1CC(=O)NC12CC(C(C)C)(C1)C2 [I-201, 2-(2-(3,6-dihydro-2H-pyran-4-yl)-5-ethyl-6-((1S,6S)-5-(3-(4-methylpiperazin-1-yl)benzoyl)-2,5-diazabicyclo[4.2.0]octan-2-yl)-7-oxo-2,7-dihydro-4H-[1,2,3]triazolo[4,5-b]pyridin-4-yl)-N-(3-isopropylbicyclo[1.1.1]pentan-1-yl)acetamide] | ≥ 8.30 | 5.70 to 6.30
CCc1c(N2CCN(C(=O)c3ncccc3C(=O)O)[C@H]3CC[C@@H]32)c(=O)c2nn(-c3ccnc(OC)c3)nc2n1CC(=O)NC12CC(C(C)C)(C1)C2 [I-202, 2-((1S,6S)-5-(5-ethyl-4-(2-((3-isopropylbicyclo[1.1.1]pentan-1-yl)amino)-2-oxoethyl)-2-(2-methoxypyridin-4-yl)-7-oxo-4,7-dihydro-2H-[1,2,3]triazolo[4,5-b]pyridin-6-yl)-2,5-diazabicyclo[4.2.0]octane-2-carbonyl)nicotinic acid] | 7.30 to 8.30 | < 5.30
CCc1c(N2CCN(C(=O)c3c(OC)cccc3B(O)O)[C@H]3CC[C@@H]32)c(=O)c2nn(C3=CCOCC3)nc2n1CC(=O)NC12CC(C(C)C)(C1)C2 [I-204, (2-((1S,6S)-5-(2-(3,6-dihydro-2H-pyran-4-yl)-5-ethyl-4-(2-((3-isopropylbicyclo[1.1.1]pentan-1-yl)amino)-2-oxoethyl)-7-oxo-4,7-dihydro-2H-[1,2,3]triazolo[4,5-b]pyridin-6-yl)-2,5-diazabicyclo[4.2.0]octane-2-carbonyl)-3-methoxyphenyl)boronic acid] | 7.30 to 8.30 | ≥ 6.30
CCc1c(N2CCN(C(=O)c3c(OC)ccnc3O)[C@H]3CC[C@@H]32)c(=O)c2nn(C3=CCOCC3)nc2n1CC(=O)NC12CC(C(C)C)(C1)C2 [I-205, 2-(2-(3,6-dihydro-2H-pyran-4-yl)-5-ethyl-6-((1S,6S)-5-(2-hydroxy-4-methoxynicotinoyl)-2,5-diazabicyclo[4.2.0]octan-2-yl)-7-oxo-2,7-dihydro-4H-[1,2,3]triazolo[4,5-b]pyridin-4-yl)-N-(3-isopropylbicyclo[1.1.1]pentan-1-yl)acetamide] | 7.30 to 8.30 | < 5.30

Other lines, results leading:

pIC50 [1] | pEC50 [2] | Compound
7.30 to 8.30 | ≥ 6.30 | CCc1c(N2CCN(C(=O)c3c(OC)ncc(C)c3O)CC2)c(=O)n2nc(-c3ccnc(OC)c3)nc2n1CC(=O)NC12CC(C3CC3)(C1)C2 [I-39, N-(3-cyclopropylbicyclo[1.1.1]pentan-1-yl)-2-(5-ethyl-6-(4-(4-hydroxy-2-methoxy-5-methylnicotinoyl)piperazin-1-yl)-2-(2-methoxypyridin-4-yl)-7-oxo-[1,2,4]triazolo[1,5-a]pyrimidin-4(7H)-yl)acetamide]
7.30 to 8.30 | ≥ 6.30 | CCc1c(N2CCN(C(=O)c3c(O)ccc4ncoc34)CC2)c(=O)n2nc(-c3ccnc(OC)c3)nc2n1CC(=O)NC12CC(C(F)(F)C(F)F)(C1)C2 [I-41, 2-(5-ethyl-6-(4-(6-hydroxybenzo[d]oxazole-7-carbonyl)piperazin-1-yl)-2-(2-methoxypyridin-4-yl)-7-oxo-[1,2,4]triazolo[1,5-a]pyrimidin-4(7H)-yl)-N-(3-(1,1,2,2-tetrafluoroethyl)bicyclo[1.1.1]pentan-1-yl)acetamide]
7.30 to 8.30 | 5.30 to 5.70 | CCc1c(N2CCN(C(=O)c3c(O)ccc4ncoc34)CC2)c(=O)n2nc(-c3ccnc(OC)c3)nc2n1CC(=O)NC12COC(C(F)(F)F)(C1)C2 [I-44, 2-(5-ethyl-6-(4-(6-hydroxybenzo[d]oxazole-7-carbonyl)piperazin-1-yl)-2-(2-methoxypyridin-4-yl)-7-oxo-[1,2,4]triazolo[1,5-a]pyrimidin-4(7H)-yl)-N-(1-(trifluoromethyl)-2-oxabicyclo[2.1.1]hexan-4-yl)acetamide]
7.30 to 8.30 | 5.30 to 5.70 | CCc1c(N2CCN(C(=O)c3c(O)ccc4ncoc34)CC2)c(=O)n2nc(-c3ccnc(OC)c3)nc2n1CC(=O)NC12CCC(C(F)(F)F)(CC1)CC2 [I-45, 2-(5-ethyl-6-(4-(6-hydroxybenzo[d]oxazole-7-carbonyl)piperazin-1-yl)-2-(2-methoxypyridin-4-yl)-7-oxo-[1,2,4]triazolo[1,5-a]pyrimidin-4(7H)-yl)-N-(4-(trifluoromethyl)bicyclo[2.2.2]octan-1-yl)acetamide]
6.30 to 7.00 | < 5.30 | CCc1c(N2CCN(C(=O)c3c(O)ccc4ncoc34)CC2)c(=O)n2nc(-c3ccnc(OC)c3)nc2n1CC(=O)NC12CC(C3COC3)(C1)C2 [I-46, 2-(5-ethyl-6-(4-(6-hydroxybenzo[d]oxazole-7-carbonyl)piperazin-1-yl)-2-(2-methoxypyridin-4-yl)-7-oxo-[1,2,4]triazolo[1,5-a]pyrimidin-4(7H)-yl)-N-(3-(oxetan-3-yl)bicyclo[1.1.1]pentan-1-yl)acetamide]
7.30 to 8.30 | ≥ 6.30 | CCc1c(N2CCN(C(=O)c3ncnc(C)c3O)[C@H]3CC[C@@H]32)c(=O)n2nc(-c3ccnc(OC)c3)nc2n1CC(=O)NC12CC(C(F)(F)F)(C1)C2 [I-48, 2-(5-ethyl-6-((1S,6S)-5-(5-hydroxy-6-methylpyrimidine-4-carbonyl)-2,5-diazabicyclo[4.2.0]octan-2-yl)-2-(2-methoxypyridin-4-yl)-7-oxo-[1,2,4]triazolo[1,5-a]pyrimidin-4(7H)-yl)-N-(3-(trifluoromethyl)bicyclo[1.1.1]pentan-1-yl)acetamide]
7.30 to 8.30 | ≥ 6.30 | CCc1c(N2CCN(C(=O)c3c(O)ccc4ncoc34)CC2)c(=O)n2nc(N(C)C)nc2n1CC(=O)NC12CC(C3CCC3)(C1)C2 [I-203, N-(3-cyclobutylbicyclo[1.1.1]pentan-1-yl)-2-(2-(dimethylamino)-5-ethyl-6-(4-(6-hydroxybenzo[d]oxazole-7-carbonyl)piperazin-1-yl)-7-oxo-[1,2,4]triazolo[1,5-a]pyrimidin-4(7H)-yl)acetamide]
7.30 to 8.30 | 5.70 to 6.30 | CCc1c(N2CCN(C(=O)c3c(O)ccc4ncoc34)CC2)c(=O)n2nc(-c3ccnc(OC)c3)nc2n1CC(=O)NC1CC2(CCC2)C1 [I-206, 2-(5-ethyl-6-(4-(6-hydroxybenzo[d]oxazole-7-carbonyl)piperazin-1-yl)-2-(2-methoxypyridin-4-yl)-7-oxo-[1,2,4]triazolo[1,5-a]pyrimidin-4(7H)-yl)-N-(spiro[3.3]heptan-2-yl)acetamide]

From patent US20250206738A1, “WRN INHIBITORS” (Nimbus Wadjet, Inc., priority 2023, published 2025)
